Reference: US20250313546A1, “NUCLEIC ACID BINDERS” (UNIVERSITY OF STRATHCLYDE, priority 2022, published 2025)
In brackets after ≈: the same amount, converted by molar mass.

Tests used:
[1] = system: Candida glabrata (ACPF3309); settings: Nakaseomyces glabratus, read-out: MIC99 Candida glabrata
[2] = system: Genomic double stranded DNA (salmon); assay: Fluorescence intercalator displacement (FID) assay, SYBR-safe probe; settings: 20 μM compound, 30° C., lower % = stronger binding
Procedure, shortened: (§1)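 Probe displacement was measured at 30 °C in 1 mM phosphate pH 7.4 containing SybrSafe (12500-fold dilution), 3.76 ng/mL nucleic acid (salmon dsDNA or polyAU dsRNA) and 20 μM compound. Fluorescence loss is normalised between probe-only and probe-plus-nucleic-acid controls.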

[3] = system: PolyAU double stranded RNA; assay: as above; settings: 20 μM compound, 30° C., lower % = stronger binding
Procedure, shortened: as §1

C. neoformans (F10025) = settings: Cryptococcus neoformans, read-out: MIC99 C. neoformans
[4] = system: A. fumigatus A1160 (MFIG001); settings: Aspergillus fumigatus, read-out: MIC99 A. fumigatus A1160
[5] = system: Staphylococcus aureus (ATCC 43300); assay: Antibacterial MIC, broth microdilution (CLSI); assay type: cell-based; settings: for MIC80: Staphylococcus aureus, ATCC43300, read-out: MIC80 S. aureus; for S. aureus Selectivity Indices, Group: Alkyl Amidines and NH Pyrroles
[6] = system: Escherichia coli (ATCC 25922); assay: Antibacterial MIC, broth microdilution (CLSI); assay type: cell-based; settings: Escherichia coli, ATCC25922; read-out: MIC80 E. coli
[7] = system: Enterococcus faecalis (ATCC 51299); assay: Antibacterial MIC, broth microdilution (CLSI); assay type: cell-based; settings: for MIC80: Enterococcus faecalis, ATCC51299, read-out: MIC80 E. faecalis; for E. faecalis Selectivity Indices, Group: SI, IC50 (μM)/MIC80 (μM), HEK293 cytotoxicity, Alkyl Amidines and NH Pyrroles
T. vaginalis = assay: Trichomonas resorufin assay; assay type: cell-based; settings: for IC50: Trichomonas vaginalis, read-out: IC50 T. vaginalis
[8] = system: Rhizopus arrhizus (NEQAS12.35321); settings: read-out: MIC99 Rhizopus arrhizus
[9] = SI, IC50 (μM)/MIC80 (μM), HEK293 cytotoxicity

CN(C)CCCN(CCCN(C)C)C(=O)c1cc(NC(=O)c2cc(NC(=O)c3ccc(/C=C/c4cnc5ccccc5c4)cc3)cn2C)cn1C [IVa9, (E)-N,N-bis(3-(dimethylamino)propyl)-1-methyl-4-(1-methyl-4-(4-(2-(quinolin-3-yl)vinyl)benzamido)-1H-pyrrole-2-carboxamido)-1H-pyrrole-2-carboxamide]
MIC99 [1]: 25 to 50 µg/mL (≈ 36.3 to 72.6 µM)
% Normalised Fluorescence with gDNA [2]: 3%
% Normalised Fluorescence with polyAU RNA [3]: 4%
MIC99 (C. neoformans (F10025)): 25 to 50 µg/mL (≈ 36.3 to 72.6 µM)
MIC99 [4]: > 50 µg/mL
MIC80 [5]: 25 to 100 µM (≈ 17.2 to 68.9 µg/mL)
MIC80 [6]: > 100 µM
MIC80 [7]: > 100 µM

CCNC(=N)CCNC(=O)c1cc(NC(=O)c2cc(NC(=O)c3ccc(/C=C/c4cccc(OC)c4)cc3)cn2C)cn1C [Ia22, (E)-N-(3-(ethylamino)-3-iminopropyl)-4-(4-(4-(3-methoxystyryl)benzamido)-1-methyl-1H-pyrrole-2-carboxamido)-1-methyl-1H-pyrrole-2-carboxamide]
MIC99 [1]: 5 to 25 µg/mL (≈ 8.39 to 42 µM)
% Normalised Fluorescence with gDNA [2]: 3%
% Normalised Fluorescence with polyAU RNA [3]: 5%
MIC99 (C. neoformans (F10025)): 25 to 50 µg/mL (≈ 42 to 83.9 µM)
MIC99 [4]: > 50 µg/mL
MIC80 [5]: 5 to 25 µM (≈ 2.98 to 14.9 µg/mL)
MIC80 [6]: > 100 µM
IC50 (T. vaginalis): 1 to 5 µM
MIC80 [7]: < 5 µM
E. faecalis Selectivity Indices, Group [7]: C (Group C: 5 < SI <= 10)

CCCCCCC/N=C(\CCNC(=O)c1cc(NC(=O)c2cc(NC(=O)c3ccc(/C=C/c4ccc(N(C)C)cc4)nc3)cn2C)cn1C)NCCCCCCC [Ia33, 6-((E)-4-(dimethylamino)styryl)-N-(5-((5-(((E)-3-(heptylamino)-3-(heptylimino)propyl)carbamoyl)-1-methyl-1H-pyrrol-3-yl)carbamoyl)-1-methyl-1H-pyrrol-3-yl)nicotinamide]
MIC99 [1]: > 50 µg/mL
% Normalised Fluorescence with gDNA [2]: 49%
% Normalised Fluorescence with polyAU RNA [3]: 24%
MIC99 (C. neoformans (F10025)): 25 to 50 µg/mL (≈ 32.1 to 64.3 µM)
MIC99 [4]: > 50 µg/mL
MIC80 [5]: 5 to 25 µM (≈ 3.89 to 19.5 µg/mL)
MIC80 [6]: > 100 µM
IC50 (T. vaginalis): 5 to 50 µM
MIC80 [7]: 25 to 100 µM (≈ 19.5 to 77.8 µg/mL)

CCCCCCCCCNC(=N)CCNC(=O)c1cc(NC(=O)c2cc(NC(=O)c3ccc(/C=C/c4cnc5ccccc5c4)cc3)cn2C)cn1C [Ia36, (E)-N-(3-imino-3-(nonylamino)propyl)-1-methyl-4-(1-methyl-4-(4-(2-(quinolin-3-yl)vinyl)benzamido)-1H-pyrrole-2-carboxamido)-1H-pyrrole-2-carboxamide]
MIC99 [1]: 25 to 50 µg/mL (≈ 35 to 69.9 µM)
% Normalised Fluorescence with gDNA [2]: 11%
% Normalised Fluorescence with polyAU RNA [3]: 4%
MIC99 (C. neoformans (F10025)): > 50 µg/mL
MIC99 [4]: > 50 µg/mL
MIC80 [5]: 5 to 25 µM (≈ 3.57 to 17.9 µg/mL)
MIC80 [6]: > 100 µM
IC50 (T. vaginalis): 5 to 50 µM
MIC80 [7]: 25 to 100 µM (≈ 17.9 to 71.5 µg/mL)

CCCCCCC/N=C(/CCNC(=O)c1cc(NC(=O)c2cc(NC(=O)c3ccc(/C=C/c4cnc5ccccc5c4)cc3)cn2C)cn1C)NCCCCCCC [Ia37, N—((Z)-3-(heptylamino)-3-(heptylimino)propyl)-1-methyl-4-(1-methyl-4-(4-((E)-2-(quinolin-3-yl)vinyl)benzamido)-1H-pyrrole-2-carboxamido)-1H-pyrrole-2-carboxamide]
MIC99 [1]: > 50 µg/mL
% Normalised Fluorescence with gDNA [2]: 16%
% Normalised Fluorescence with polyAU RNA [3]: 68%
MIC99 (C. neoformans (F10025)): 25 to 50 µg/mL (≈ 31.8 to 63.7 µM)
MIC99 [4]: > 50 µg/mL
MIC80 [5]: 5 to 25 µM (≈ 3.93 to 19.6 µg/mL)
MIC80 [6]: > 100 µM
IC50 (T. vaginalis): 5 to 50 µM
MIC80 [7]: 25 to 100 µM (≈ 19.6 to 78.5 µg/mL)

CCCC/N=C(\CCNC(=O)c1cc(NC(=O)c2cc(NC(=O)c3ccc(/C=C/c4cnc5ccccc5c4)cc3)cn2C)cn1C)NCCCC [Ia38, N—((E)-3-(butylamino)-3-(butylimino)propyl)-1-methyl-4-(1-methyl-4-(4-((E)-2-(quinolin-3-yl)vinyl)benzamido)-1H-pyrrole-2-carboxamido)-1H-pyrrole-2-carboxamide]
MIC99 [1]: 5 to 25 µg/mL (≈ 7.13 to 35.7 µM)
% Normalised Fluorescence with gDNA [2]: 10%
% Normalised Fluorescence with polyAU RNA [3]: 4%
MIC99 (C. neoformans (F10025)): 25 to 50 µg/mL (≈ 35.7 to 71.3 µM)
MIC99 [4]: > 50 µg/mL
MIC80 [5]: < 5 µM
MIC80 [6]: > 100 µM
IC50 (T. vaginalis): 5 to 50 µM
MIC80 [7]: 25 to 100 µM (≈ 17.5 to 70.1 µg/mL)

CCCC/N=C(\CCNC(=O)c1cc(NC(=O)c2cc(NC(=O)c3ccc(/C=C/c4ccc(N(C)C)cc4)nc3)cn2C)cn1C)NCCCC [Ia39, N-(5-((5-(((E)-3-(butylamino)-3-(butylimino)propyl)carbamoyl)-1-methyl-1H-pyrrol-3-yl)carbamoyl)-1-methyl-1H-pyrrol-3-yl)-6-((E)-4-(dimethylamino)styryl)nicotinamide]
MIC99 [1]: 25 to 50 µg/mL (≈ 36 to 72.1 µM)
% Normalised Fluorescence with gDNA [2]: 50%
% Normalised Fluorescence with polyAU RNA [3]: 43%
MIC99 (C. neoformans (F10025)): 25 to 50 µg/mL (≈ 36 to 72.1 µM)
MIC99 [4]: > 50 µg/mL
MIC80 [5]: < 5 µM
MIC80 [6]: > 100 µM
IC50 (T. vaginalis): 5 to 50 µM
MIC80 [7]: 25 to 100 µM (≈ 17.3 to 69.4 µg/mL)

Cn1cc(NC(=O)c2cc(NC(=O)c3ccc(/C=C/c4cnc5ccccc5c4)cc3)cn2C)cc1C(=O)NCCC(=N)NCCC1CCOCC1 [Ia44, (E)-N-(3-imino-3-((2-(tetrahydro-2H-pyran-4-yl)ethyl)amino)propyl)-1-methyl-4-(1-methyl-4-(4-(2-(quinolin-3-yl)vinyl)benzamido)-1H-pyrrole-2-carboxamido)-1H-pyrrole-2-carboxamide]
MIC99 [1]: 5 to 25 µg/mL (≈ 7.13 to 35.7 µM)
% Normalised Fluorescence with gDNA [2]: 16%
% Normalised Fluorescence with polyAU RNA [3]: 19%
MIC99 (C. neoformans (F10025)): 25 to 50 µg/mL (≈ 35.7 to 71.3 µM)
MIC99 [4]: > 50 µg/mL
MIC80 [5]: 5 to 25 µM (≈ 3.5 to 17.5 µg/mL)
MIC80 [6]: > 100 µM
IC50 (T. vaginalis): 5 to 50 µM
MIC80 [7]: 5 to 25 µM (≈ 3.5 to 17.5 µg/mL)

[H]/N=C(\CCNC(=O)c1cc(NC(=O)c2cc(NC(=O)c3ccc(C=Cc4ccc5nonc5c4)cc3)cn2C)cn1C)NCCC1CCOCC1 [Ia45, (E)-4-(4-(2-(benzo[c][1,2,5]oxadiazol-5-yl)vinyl)benzamido)-N-(5-((3-imino-3-((2-(tetrahydro-2H-pyran-4-yl)ethyl)amino)propyl)carbamoyl)-1-methyl-1H-pyrrol-3-yl)-1-methyl-1H-pyrrole-2-carboxamide]
MIC99 [1]: 25 to 50 µg/mL (≈ 36.1 to 72.3 µM)
% Normalised Fluorescence with gDNA [2]: 9%
% Normalised Fluorescence with polyAU RNA [3]: 3%
MIC99 (C. neoformans (F10025)): 5 to 25 µg/mL (≈ 7.23 to 36.1 µM)
MIC99 [4]: > 50 µg/mL
S. aureus Selectivity Indices, Group [5, 9]: B (Group B: 3 < SI <= 5)
MIC80 [5]: 5 to 25 µM (≈ 3.46 to 17.3 µg/mL)
MIC80 [6]: > 100 µM
IC50 (T. vaginalis): 5 to 50 µM
MIC80 [7]: > 100 µM

CN1CCN(C(=N)CCNC(=O)c2cc(NC(=O)c3cc(NC(=O)c4ccc(/C=C/c5cnc6ccccc6c5)cc4)cn3C)cn2C)CC1 [Ib3, (E)-N-(3-imino-3-(4-methylpiperazin-1-yl)propyl)-1-methyl-4-(1-methyl-4-(4-(2-(quinolin-3-yl)vinyl)benzamido)-1H-pyrrole-2-carboxamido)-1H-pyrrole-2-carboxamide]
MIC99 [1]: 5 to 25 µg/mL (≈ 7.44 to 37.2 µM)
% Normalised Fluorescence with gDNA [2]: 13%
% Normalised Fluorescence with polyAU RNA [3]: 5%
MIC99 (C. neoformans (F10025)): 5 to 25 µg/mL (≈ 7.44 to 37.2 µM)
MIC99 [4]: > 50 µg/mL
S. aureus Selectivity Indices, Group [5, 9]: B (Group B: 3 < SI <= 5)
MIC80 [5]: < 5 µM
MIC80 [6]: > 100 µM
IC50 (T. vaginalis): 5 to 50 µM
MIC80 [7]: 5 to 25 µM (≈ 3.36 to 16.8 µg/mL)

Cn1cc(NC(=O)c2cc(NC(=O)c3ccc(/C=C/c4cnc5ccccc5c4)cc3)cn2C)cc1C(=O)NCCC(=N)N1CCOCC1 [Ib5, (E)-N-(3-imino-3-morpholinopropyl)-1-methyl-4-(1-methyl-4-(4-(2-(quinolin-3-yl)vinyl)benzamido)-1H-pyrrole-2-carboxamido)-1H-pyrrole-2-carboxamide]
MIC99 [1]: < 5 µg/mL
% Normalised Fluorescence with gDNA [2]: 22%
% Normalised Fluorescence with polyAU RNA [3]: 13%
MIC99 (C. neoformans (F10025)): 5 to 25 µg/mL (≈ 7.59 to 37.9 µM)
MIC99 [4]: 5 to 25 µg/mL (≈ 7.59 to 37.9 µM)
S. aureus Selectivity Indices, Group [5, 9]: D (D: SI > 10)
S. aureus Selectivity Index (SI) ([5]; SI, IC50 (μM)/MIC80 (μM), HEK293 cytotoxicity, numeric value): 27
MIC80 [5]: < 5 µM
MIC80 [6]: > 100 µM
T. vaginalis Selectivity Indices, Group (T. vaginalis; SI, IC50 (μM)/IC50 (μM), HEK293 cytotoxicity, Alkyl Amidines and NH Pyrroles): C (Group C: 16 < SI <= 32)
IC50 (T. vaginalis): 1 to 5 µM
MIC80 [7]: < 5 µM
E. faecalis Selectivity Indices, Group [7]: C (Group C: 5 < SI <= 10)
MIC99 [8]: 25 to 50 µg/mL (≈ 37.9 to 75.9 µM)

[H]/N=C(\CCNC(=O)c1cc(NC(=O)c2cc(NC(=O)c3ccc(C=Cc4ccc5nonc5c4)cc3)cn2C)cn1C)N1CCOCC1 [Ib6, (E)-4-(4-(2-(benzo[c][1,2,5]oxadiazol-5-yl)vinyl)benzamido)-N-(5-((3-imino-3-morpholinopropyl)carbamoyl)-1-methyl-1H-pyrrol-3-yl)-1-methyl-1H-pyrrole-2-carboxamide]
MIC99 [1]: 25 to 50 µg/mL (≈ 38.5 to 77 µM)
% Normalised Fluorescence with gDNA [2]: 11%
% Normalised Fluorescence with polyAU RNA [3]: 49%
MIC99 (C. neoformans (F10025)): 25 to 50 µg/mL (≈ 38.5 to 77 µM)
MIC80 [5]: 5 to 25 µM (≈ 3.25 to 16.2 µg/mL)
MIC80 [6]: > 100 µM
IC50 (T. vaginalis): > 50 µM
MIC80 [7]: 25 to 100 µM (≈ 16.2 to 65 µg/mL)
MIC99 [8]: 5 to 25 µg/mL (≈ 7.7 to 38.5 µM)
